Test results taken from BindingDB's records for patent US20250091994 (Kobe University, 2025).

Target: GTPase HRas [G12V] (Homo sapiens, UniProt P01112, G12V)
Experiment: In Vitro Ras-Raf Binding Inhibitory Activity Assay
Method: The in vitro Ras-Raf binding inhibitory activity of the compound of the present invention was evaluated by an ELISA method described below. GST-c-Raf-1 RBD diluted with a Ras-Raf binding buffer (50 mM Tris-HCl pH7.4, 150 mM NaCl, 5 mM MgCl2, 1 mM EDTA, and 1% Triton-X100) was added to each well of a glutathione-coated 96-well plate (Thermo Fisher Scientific.), and was incubated at 30° C. for 1 hour, to immobilize Raf on the well. The unbound free Raf was eliminated by washing the well with the Ras-Raf binding buffer three times. Subsequently, GTPTS-bound HRasG12V diluted with the Ras-Raf binding buffer and each compound solution (final DMSO concentration: 10%) were applied to each well, and the resulting mixture was then incubated at 30° C. for 1 hour, so that Ras and Raf were allowed to bind to each other. Thereafter, the plate was washed with the Ras-Raf binding buffer twice, and was then subjected to a blocking treatment at room temperature for 20 minutes, using TBS-Tween {10 mM Tris-HCl pH 7.4, 150 mM NaCl, and 0.05% (w/v) Tween-20}-5% (w/v) bovine serum albumin (BSA). After that, an anti-HRas antibody (C-20, Santa Cruz) or an anti-HRas antibody (259, Santa Cruz), which had been 1000 times diluted with TBS-Tween-5% BSA, was added to the reaction mixture, and incubated at room temperature for 1 hours. After the treatment with the primary antibody, the plate was washed with TBS-Tween-5% BSA three times, and a horseradish peroxidase-labeled secondary antibody against rabbit immunoglobulin G (GE Healthcare) of 1000 times diluted with TBS-Tween-5% BSA, was added to the plate, followed by incubation at room temperature for 1 hour. After the treatment with the secondary antibody, the plate was washed with TBS-Tween-5% BSA three times, and a substrate solution (TMB) was then added to the plate, followed by incubation at room temperature for 15 minutes for coloration. Finally, 2 M H2SO4 was added to stop color development (coloration reaction kit: Nacalai Tesque).

Sequence of GTPase HRas [G12V] (P01112 whole entry G12V, looked up): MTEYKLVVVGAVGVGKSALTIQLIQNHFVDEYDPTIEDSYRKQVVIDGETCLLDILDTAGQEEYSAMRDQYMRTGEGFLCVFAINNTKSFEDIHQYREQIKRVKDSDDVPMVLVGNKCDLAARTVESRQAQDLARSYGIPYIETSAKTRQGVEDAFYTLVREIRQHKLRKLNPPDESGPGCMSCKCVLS

IC50	SMILES
7100 nM	CC(=O)N1/C(=C/c2nc3ccc(/C=C/S(=O)(=O)N4CCOCC4)cc3s2)C(=O)c2ccccc21 [US20250091994, Example 43]
2100 nM	COc1cc(/C=C2/C(=O)c3ccccc3N2C(C)=O)ccc1OCS(C)(=O)=O [US20250091994, Example 24]
3700 nM	CC(=O)N1/C(=C\c2ncc(C(=O)N3CCOCC3)s2)C(=O)c2ccccc21 [US20250091994, Example 38]
600 nM	CC(=O)N1/C(=C/c2cc(-c3cccc4[nH]ncc34)c3cc(C(=O)N4CCOCC4)ccc3n2)C(=O)c2ccccc21 [US20250091994, Example 145]
2100 nM	CC(=O)N1/C(=C\c2cc(N3CCC(C#N)CC3)c3cc(C(=O)N4CCOCC4)ccc3n2)C(=O)c2ccccc21 [US20250091994, Example 87]
2300 nM	CC(=O)N1C(=Cc2ccc3cc(C(=O)N4CCOCC4)ccc3c2)C(=O)c2ccccc21 [US20250091994, Example 66]
7900 nM	COc1cc(/C=C2/C(=O)c3ccccc3N2C(C)=O)ccc1OCC(=O)N1CCOCC1 [US20250091994, Example 2]
1100 nM	CC(=O)N1C(=Cc2ccc3cc(CNS(C)(=O)=O)ccc3n2)C(=O)c2ccccc21 [US20250091994, Example 64]
840 nM	CC(=O)N1C(=Cc2cc(-c3ccccc3)c3cc(C(=O)N4CCOCC4)ccc3n2)C(=O)c2ccccc21 [US20250091994, Example 83]
2000 nM	CC(=O)NCc1ccc2nc(/C=C3/C(=O)c4ccccc4N3C(C)=O)ccc2c1 [US20250091994, Example 63]
800 nM	CC(=O)N1/C(=C\c2cc(-c3cn(C)cn3)c3cc(C(=O)N4CCOCC4)ccc3n2)C(=O)c2ccccc21 [US20250091994, Example 192]
900 nM	CC(=O)N1/C(=C\c2cc(-c3ccncc3)c3cc(C(=O)N4CCOCC4)ccc3n2)C(=O)c2ccccc21 [US20250091994, Example 184]
1200 nM	CC(=O)N1/C(=C\c2ccc3cc(CCC(=O)N4CCOCC4)ccc3n2)C(=O)c2ccccc21 [US20250091994, Example 45]
2400 nM	CC(=O)N1C(=Cc2cc(-c3ccc(-c4ccccc4)cc3)c3cc(C(=O)N4CCN(C5COC5)CC4)ccc3n2)C(=O)c2ccccc21 [US20250091994, Example 162]
5900 nM	COc1cc(/C=C2/C(=O)c3ccccc3N2C(C)=O)ccc1OC[S+](C)[O-] (centres undefined) [US20250091994, Example 25]
1000 nM	CC(=O)N1/C(=C\c2cc(C(N)=O)c3cc(C(=O)N4CCOCC4)ccc3n2)C(=O)c2ccccc21 [US20250091994, Example 111]
700 nM	CC(=O)N1CCc2c(cccc2-c2cc(/C=C3/C(=O)c4ccccc4N3C(C)=O)nc3ccc(CNC4CCOCC4)cc23)C1 [US20250091994, Example 207]
8400 nM	COCCN1CCN(C(=O)c2ccc3nc(/C=C4/C(=O)c5ccccc5N4C(C)=O)ccc3c2)CC1 [US20250091994, Example 116]
780 nM	CC(=O)N1/C(=C/c2nc3cc(C(=O)N4CC(C)OC(C)C4)ccc3s2)C(=O)c2ccccc21 (centres undefined) [US20250091994, Example 99]
5600 nM	CC(=O)N1C(=Cc2ccc3ccc(C(=O)N4CCOCC4)cc3n2)C(=O)c2ccccc21 [US20250091994, Example 62]
960 nM	CC(=O)N1/C(=C\c2ccc3cc(C(=O)N4CC(C)OC(C)C4)ccc3n2)C(=O)c2ccccc21 (centres undefined) [US20250091994, Example 44]
790 nM	CC(=O)N1/C(=C/c2nc3ccc(CNC4CCOCC4)cc3s2)C(=O)c2ccccc21 [US20250091994, Example 135]
2000 nM	CC(=O)N1C(=Cc2cc(-c3ccccc3-c3cnn(C)c3)c3cc(CNC4CCOCC4)ccc3n2)C(=O)c2ccccc21 [US20250091994, Example 206]
2600 nM	CC(=O)N1/C(=C/c2nc3ccc(/C=C/C(=O)N4CCOCC4)cc3s2)C(=O)c2ccccc21 [US20250091994, Example 108]
1400 nM	CC(=O)N1CCN(c2cc(/C=C3/C(=O)c4ccccc4N3C(C)=O)nc3ccc(C(=O)N4CCOCC4)cc23)CC1 [US20250091994, Example 90]
880 nM	CC(=O)N1C(=Cc2ccc3cc(C(=O)N4CCOCC4)ccc3n2)C(=O)c2ccccc21 [US20250091994, Example 28]
29000 nM	CC(=O)N1/C(=C\c2ccc3cc(C(=O)N4CCC(c5ccccc5)CC4)ccc3n2)C(=O)c2ccccc21 [US20250091994, Example 114]

IC50	SMILES
4700 nM	CC(=O)N1/C(=C\c2ccc3cc(C(=O)N4CCN(C5COC5)CC4)ccc3n2)C(=O)c2ccccc21 [US20250091994, Example 41]
500 nM	CC(=O)N1CCc2cc(-c3cc(/C=C4/C(=O)c5ccccc5N4C(C)=O)nc4ccccc34)ccc2C1 [US20250091994, Example 187]
660 nM	CC(=O)N1C(=Cc2cc(-c3cccnc3-c3ccccc3)c3cc(C(=O)N4CCOCC4)ccc3n2)C(=O)c2ccccc21 [US20250091994, Example 94]
800 nM	CC(=O)N1CCc2cc(-c3cc(/C=C4/C(=O)c5ccccc5N4C(C)=O)nc4ccc(C(=O)N5CCOCC5)cc34)ccc2C1 [US20250091994, Example 144]
800 nM	CC(=O)N1CCc2ccc(-c3c(C(=O)N4CCOCC4)ccc4nc(/C=C5/C(=O)c6ccccc6N5C(C)=O)ccc34)cc2C1 [US20250091994, Example 201]
2200 nM	COC1(COC(=O)N2CCN(C(=O)c3ccc4nc(/C=C5/C(=O)c6ccccc6N5C(C)=O)ccc4c3)CC2)COC1 [US20250091994, Example 120]
600 nM	CC(=O)N1/C(=C\c2nc(-c3cnn(C)c3)c3ccccc3n2)C(=O)c2ccccc21 [US20250091994, Example 203]
6000 nM	CC(=O)N1C(=Cc2ccc3cc(C(=O)N4CCNCC4)ccc3n2)C(=O)c2ccccc21 [US20250091994, Example 139]
1100 nM	CC(=O)N1C(=Cc2ccc3cc(/C=C/C(=O)NC4CCN(C5COC5)CC4)ccc3n2)C(=O)c2ccccc21 [US20250091994, Example 79]
1100 nM	CC(=O)N1/C(=C/c2cc(-c3ccnc4ccccc34)c3cc(C(=O)N4CCOCC4)ccc3n2)C(=O)c2ccccc21 [US20250091994, Example 117]
1800 nM	CC(=O)N1C(=Cc2cc(C(=O)N3CCN(C4COC4)CC3)c3ccccc3n2)C(=O)c2ccccc21 [US20250091994, Example 204]
1600 nM	CC(=O)N1C(=Cc2cc(-c3cncnc3)c3cc(C(=O)N4CCOCC4)ccc3n2)C(=O)c2ccccc21 [US20250091994, Example 185]
10000 nM	COc1cc(C=C2C(=O)c3ccc(F)cc3N2C(C)=O)ccc1OCC(=O)N1CCOCC1 [US20250091994, Example 103]
2800 nM	COCC(O)CN1CCN(C(=O)c2ccc3nc(/C=C4/C(=O)c5ccccc5N4C(C)=O)ccc3c2)CC1 (centres undefined) [US20250091994, Example 42]
1100 nM	CC(=O)N1/C(=C\c2cc(N=[N+]=[N-])c3cc(C(=O)N4CCOCC4)ccc3n2)C(=O)c2ccccc21 [US20250091994, Example 81]
1500 nM	CC(=O)N1C(=Cc2ccc3cc(CNC4CCOCC4)ccc3n2)C(=O)c2ccccc21 [US20250091994, Example 131]
13000 nM	COc1cc(/C=C2/C(=O)c3ccccc3N2C(C)=O)ccc1CCC(N)=O [US20250091994, Example 31]
9000 nM	COc1cc(C=C2C(=O)c3c(F)cccc3N2C(C)=O)ccc1OCC(=O)N1CCOCC1 [US20250091994, Example 104]
1300 nM	CC(=O)N1/C(=C\c2cc(-c3ccccc3-c3ccccc3)c3cc(C(=O)N4CCN(C)CC4)ccc3n2)C(=O)c2ccccc21 [US20250091994, Example 140]
1500 nM	CC(=O)N1/C(=C\c2ccc3cc(C(=O)N4CCC(C(=O)O)CC4)ccc3n2)C(=O)c2ccccc21 [US20250091994, Example 129]
3500 nM	CC(=O)N1/C(=C/c2nc3cc(C(=O)N4CCOCC4)ccc3s2)C(=O)c2ccccc21 [US20250091994, Example 48]
570 nM	CC(=O)N1/C(=C/c2nc3ccc(CNS(C)(=O)=O)cc3s2)C(=O)c2ccccc21 [US20250091994, Example 56]
2900 nM	COC1(CN2CCN(C(=O)c3ccc4nc(/C=C5/C(=O)c6ccccc6N5C(C)=O)ccc4c3)CC2)COC1 [US20250091994, Example 119]
400 nM	CC(=O)N1C(=Cc2cc(-c3ccc4c(c3)CCN(C)C4)c3cc(C(=O)N4CCOCC4)ccc3n2)C(=O)c2ccccc21 [US20250091994, Example 173]
680 nM	CC(=O)Nc1cc(/C=C2/C(=O)c3ccccc3N2C(C)=O)nc2ccc(C(=O)N3CCOCC3)cc12 [US20250091994, Example 113]
1000 nM	CC(=O)N1CCc2cc(-c3c(C(=O)N4CCOCC4)ccc4nc(/C=C5/C(=O)c6ccccc6N5C(C)=O)ccc34)ccc2C1 [US20250091994, Example 200]
460 nM	CC(=O)N1C(=Cc2nc3cc(/C=C/C(=O)N4CCOCC4)ccc3s2)C(=O)c2ccccc21 [US20250091994, Example 109]
